# Results from patent US12303530B2, “Combination therapy of cycloserine and lithium for the treatment of depression” (NEURORIVE INC, priority 2019, dated 2025).
# System: mice (C57BL6)
# Test: forced swimming test (FST)
# Assay type: in vivo, mouse
# Settings: FST in an hour after administration, immobility time measured for the last 4 minutes of 6 minutes
# Method: In order to test an effect of reducing depression depending on administration of the pharmaceutical composition of the present invention, mice were subjected to a forced swimming test (FST). The FST, which is to measure a coping strategy for acute stress that inevitably occurs, is an animal behavioral experiment commonly used to measure antidepressant effects. To confirm the effect of reducing depression by combined administration of D-cycloserine (DCS) and lithium, 10 ml/kg of the preparation was administered to all groups of mice (C57BL6). […] After 1 hour, the forced swimming test (FST) that measures depression-like behavior was performed on the mice. Specifically, each group of mice was individually placed in a 3 L Pyrex beaker (13 cm in diameter, 24 cm in height), and the beakers were filled with 27.5±1.5° C. of water up to a depth of 9 cm. All mice were forced to swim for 6 minutes, and immobility time was measured for the last 4 minutes of the experiment. The immobility time is defined as the […] time taken while the mouse is floating without struggling or taking only the movement required for keeping the mouse's head above the water surface.
row,SMILES,"immobility in forced swimming test, compared to the control group administered with the vehicle"
1,"N[C@@H]1CONC1=O [DCS, D-cycloserine]",did not show statistical significance
2,"O=C([O-])[O-].[Li+].[Li+] [Li2CO3, Lithium carbonate]",did not show statistical significance
